Target: T1, TcXyn30B (Talaromyces pinophilus, UniProt A0A510NXC4)
T1 construct: gene TCE0_018f06110; no His tag; vector residues AYVEF at N-terminus (numbered 18-22); secreted from Pichia pastoris GS115, N-glycosylated, 62182 Da; one molecule per asymmetric unit
T1 sequence (A0A510NXC4 23-474): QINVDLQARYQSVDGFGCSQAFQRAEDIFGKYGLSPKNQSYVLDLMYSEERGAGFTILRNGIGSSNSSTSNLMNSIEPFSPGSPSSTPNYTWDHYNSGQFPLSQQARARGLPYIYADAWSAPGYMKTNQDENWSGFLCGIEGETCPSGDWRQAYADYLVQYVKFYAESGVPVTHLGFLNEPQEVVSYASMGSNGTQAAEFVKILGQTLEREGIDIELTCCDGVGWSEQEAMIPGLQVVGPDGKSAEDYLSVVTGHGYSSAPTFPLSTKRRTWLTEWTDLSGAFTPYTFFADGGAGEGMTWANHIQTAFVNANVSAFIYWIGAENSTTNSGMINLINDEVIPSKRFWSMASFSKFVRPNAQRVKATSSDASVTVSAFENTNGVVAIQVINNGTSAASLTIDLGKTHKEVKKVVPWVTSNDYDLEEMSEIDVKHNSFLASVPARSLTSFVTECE
Assay: X-ray crystallography (co-crystal, […] Å)
Type: binding
Conditions: co-crystallised with aldouronic acid mixture (Megazyme); pH 7.3, MgCl2; subsites -1, -2a and -2b of active site

CO[C@H]1[C@H](O)[C@@H](O)[C@@H](O[C@H]2[C@H](O[C@@H]3COC(O)[C@H](O)[C@H]3O)OC[C@@H](O)[C@@H]2O)O[C@@H]1C(=O)O (stereo partly drawn) [U^4m2X, 2^2‐(4‐O‐methyl‐α‐D‐glucuronyl)‐xylobiose] was tested, and the “X-ray crystallography (co-crystal, 1.65 Å)” value was “A clear density map for U^4m2X is observed in the active cleft”.

From PMC7262913, “Substrate recognition by a bifunctional GH30‐7 xylanase B from Talaromyces cellulolyticus” (FEBS Open Bio, 2020)
